Converted amounts (≈) assume the structure as drawn.
Key:
A. fumigatus ATCC 26430 [1] = test: Colorimetric microplate drug susceptibility test (WST-8 coloring reagent, sucrose YN broth, NaOH sensitizing solution); format: cell-based, Aspergillus Fumigatus; conditions: for Drug concentration at or above which almost no color was exhibited visually: visual reading
Protocol: (§1) Aspergillus Fumigatus ATCC26430 was used.
The drug solutions so prepared were pipetted into a plate at 0.02 mL/well and dried to a solid under reduced pressure for 24 hours. A coloring reagent (containing 0.7 mmol/L WST-8, 0.0035 mmol/L 1-methoxy PMS, 0.5 mmol/L potassium ferricyanide, and 0.5 mmol/L of potassium ferrocyanide) was pipetted into each of the wells at 0.02 mL/well and they were again dried to a solid under reduced pressure for 24 hours.
6.7 g of YN Base (manufactured by Difco) and 20 g of sucrose were dissolved in about 900 mL of purified water, and the pH was adjusted to 7.0 with a 1N aqueous solution of sodium hydroxide. The solution was made up to 1000 mL with purified water and then filter sterilized using a 0.2 μm filter.
A tester strain was cultured using Sabouraud Dextrose Agar (manufactured by OXOID) at 35° C. for 7 days. 2 mL of sterile physiological saline containing 0.1% Tween 80 was added dropwise onto the culture medium so as to float spores. The above-mentioned physiological saline that had been added dropwise onto the culture medium was recovered and allowed to stand for 3 to 5 minutes, and after removing the precipitate it was mixed using a Vortex mixer to give a spore suspension. Dilution was carried out so that the absorbance at 530 nm was 0.09 to 0.11. 0.1 mL of the spore suspension so prepared was taken using a micro pipette, added to 20 mL of sucrose YN broth, and stirred using a Vortex mixer to give an inoculum. 0.2 mL of the inoculum was pipetted into each of the wells of the microplate for the test described in B, the plate was covered, and culturing was carried out at 35° C.±1° C. for 24 hours. As a blank, sucrose YN broth was added instead of the inoculum.
After 24 hours 0.02 mL of a 1.5 mol/L aqueous solution of sodium hydroxide was added to each well, and 5 minutes after the addition the absorbance at 630 nm was measured.
2. For ITCZ, the 80% inhibitory concentration (IC80) was determined.

A. fumigatus ATCC 26430 [2] = test: NCCLS M-38P turbidity method (0.2 mL micro broth dilution) antifungal susceptibility test; format: cell-based; conditions: Aspergillus fumigatus, ATCC26430, repeated tests, determination time 46 to 50 hours
Protocol: as §1
A comparative example was carried out according to NCCLS M-38P (0.2 mL culture system micro broth dilution method).

A. fumigatus ATCC 26430 [3] = conditions: reference values of NCCLS M38-P; cited from earlier work

Row | Compound | Drug concentration at or below which absorbance at 630 nm increased (FIG. 2) (A. fumigatus ATCC 26430 [1]; 24 hours culture, absorbance at 630 nm) | Drug concentration at or above which almost no color was exhibited visually (A. fumigatus ATCC 26430 [1]; 24 hours culture) | MIC (A. fumigatus ATCC 26430 [1]; Aspergillus fumigatus, ATCC26430, 24 h) | MIC (A. fumigatus ATCC 26430 [2]) | Allowable range (MIC reference values described in NCCLS M38-P) (A. fumigatus ATCC 26430 [3])
1 | CCC(C)n1ncn(-c2ccc(N3CCN(c4ccc(OCC5COC(Cn6cncn6)(c6ccc(Cl)cc6Cl)O5)cc4)CC3)cc2)c1=O (stereo not drawn) [ITCZ, Itraconazole] | ≤ 0.06 µg/mL | ≥ 0.12 µg/mL | 0.12 to 0.25 µg/mL | 0.12 to 0.25 µg/mL (≈ 0.17 to 0.354 µM) | 
2 | C[C@@H]1[C@H](O)[C@@H](C)/C=C/C=C/C=C/C=C/C=C/C=C/C=C/[C@H](O[C@@H]2O[C@H](C)[C@@H](O)[C@H](N)[C@@H]2O)C[C@@H]2O[C@](O)(C[C@@H](O)C[C@@H](O)[C@H](O)CC[C@@H](O)C[C@@H](O)CC(=O)O[C@H]1C)C[C@H](O)[C@H]2C(=O)O [AMPH, Amphotericin B] |  | ≥ 0.5 µg/mL |  |  | 0.5 to 2.0 µg/mL

— US6984500B2, “Method for detecting microorganisms and detection kit” (priority 2001, dated 2006)
